Data as given in ChEMBL document CHEMBL3045906, “LCMS/MS method for simultaneous analysis of cladrin and equol in rat plasma and its application in pharmacokinetics study of cladrin” (Med Chem Res, 2011).

Columns and labels:
[1] = test system: Plasma; experiment: Drug recovery in Rattus norvegicus (rat) plasma at 50 ng/ml by LLE method; format: ADME, cell-free
[2] = Stability of the compound in Rattus norvegicus (rat) plasma at 7.8 ng/ml after three 24 hr cycles of freeze-thaw on storing at -80 degC; format: ADME, cell-free; conditions: read-out: Stability
[3] = Stability of the compound in Rattus norvegicus (rat) plasma at 62.5 ng/ml after three 24 hr cycles of freeze-thaw on storing at -80 degC; format: ADME, cell-free; conditions: read-out: Stability
[4] = Stability of the compound in Rattus norvegicus (rat) plasma at 62.5 ng/ml after 2 months at -80 degC; format: ADME, cell-free; conditions: read-out: Stability
[5] = Stability of the compound in Rattus norvegicus (rat) plasma at 1000 ng/ml after three 24 hr cycles of freeze-thaw on storing at -80 degC; format: ADME, cell-free; conditions: read-out: Stability
[6] = Stability of the compound in Rattus norvegicus (rat) plasma at 7.8 ng/ml after 2 months at -80 degC; format: ADME, cell-free; conditions: read-out: Stability
[7] = Stability of the compound in Rattus norvegicus (rat) plasma at 1000 ng/ml after 2 months at -80 degC; format: ADME, cell-free; conditions: read-out: Stability
[8] = AUC (0 to alpha) in Rattus norvegicus Sprague-Dawley (rat) at 10 mg/kg, po; format: ADME, organism-based; set-up: dose 10 mg/kg, route oral; conditions: plasma
[9] = Tmax in Rattus norvegicus Sprague-Dawley (rat) at 10 mg/kg, po; format: ADME, organism-based; set-up: dose 10 mg/kg, route oral; conditions: in vivo
[10] = Mean residence time in Rattus norvegicus Sprague-Dawley (rat) at 10 mg/kg, po; format: ADME, organism-based; set-up: dose 10 mg/kg, route oral; conditions: in vivo
[11] = Half life in Rattus norvegicus Sprague-Dawley (rat) at 10 mg/kg, po; format: ADME, organism-based; set-up: dose 10 mg/kg, route oral; conditions: in vivo
[12] = Cmax in Rattus norvegicus Sprague-Dawley (rat) at 10 mg/kg, po; format: ADME, organism-based; set-up: dose 10 mg/kg, route oral; conditions: in vivo

Row | SMILES | Drug recovery [1] [%] | remaining at 24 h, 7.8 ng/ml [2] [%] | remaining at 24 h, 62.5 ng/ml [3] [%] | remaining at 1461 h, 62.5 ng/ml [4] [%] | remaining at 24 h, 1000 ng/ml [5] [%] | remaining at 1461 h, 7.8 ng/ml [6] [%] | remaining at 1461 h, 1000 ng/ml [7] [%] | AUC [8] [ng·h/mL] | Tmax [9] [min] | MRT [10] [h] | half-life [11] [min] | Cmax [12] [ng/mL]
1 | O=c1c(-c2ccccc2)coc2cc(O)ccc12 [7-HYDROXY ISOFLAVONE] | 85.3 | – | – | – | – | – | – | – | – | – | – | –
2 | Oc1ccc([C@H]2COc3cc(O)ccc3C2)cc1 [AUS-131] | 76.5 | 93.9 | 94.6 | 103 | 91.8 | 100 | 95.6 | – | – | – | – | –
3 | COc1ccc(-c2coc3cc(O)ccc3c2=O)cc1OC [CLADRIN] | 83.5 | 93.6 | 98.5 | 84.5 | 88.2 | 106 | 81.4 | 609 | 30 | 10.8 | 246 | 44.8
